# Assay results published in patent publication US11142718B2, “Ecofriendly and biodegradable lubricant formulation and process for preparation thereof” (Council of Scientific & Industrial Research, priority 2017, dated 2021).
# Read-outs that look alike come from different tables or passages of the source.
# Experiments:
# Format in all cases: physicochemical
# [1] = Kinematic viscosity (IS: 1448: P-25); conditions: for viscosity at 40° C.: in cSt; for KV in cst at 40° C.: P-25
# Protocol: (§1) In an embodiment of the present invention the polyol complex ester base oils may be selected from the viscosity range of 34.26 to 43.54 cSt at 40° C. as per IS: 1448: P-25 matching the specification and a high viscosity index of 161-171 as per P-56.
# (§2) The synthesized products have the following characteristics: • a. The prepared esters have viscosity grade of 31.0 to 47.0 cSt at 40° C. as per P-25 matching the specification and a high viscosity index of 161-171 as per P-56. • b. […] The biodegradability of the synthesized ester is above 95% as per the standard ASTM D: 5864 test method for biodegradability. • e. The products are non toxic to the sewage bacteria. • f. The conventional additives which are suitable for mineral oils are also giving positive response with this ester. • g. The products have good anti wear properties with wear scar diameter of 0.350 mm at 40 kgf load as per ASTM D: 4172B. • h. The products have excellent load bearing capacity. • i. The products have good lubricity. • j. The products have good oxidative stability. • k. The products have no evaporation loss. • l. The products have good adherence to metal characteristics. • m. The products have good corrosion inhibiting characteristics. • n. […] Synthetic biodegradable polyol complex ester lubricating oils have excellent biodegradability, a high viscosity index and a low pour point, a high flash point, very good lubricity, good oxidative stability and property of preventing corrosion and suitable for use with sealing materials. • p.
# [2] = Viscosity index (P-56)
# Protocol: as §1, §2
# [3] = Pour point (IS: 1448: P-10)
# Protocol: as §2
# [4] = Kinematic viscosity (IS: 1448: P-25); conditions: for viscosity at 100° C. / viscosity at 0° C.: in cSt
# [5] = Density (ASTM D: 4052)
# [6] = Evaporation loss (P-136)
# [7] = Adherence to metal (drop diameter change, contact angle); conditions: polished mild steel substrates
# [8] = Acidity (P-2)
viscosity at 40° C. [1],viscosity index [2],pour point [3] [°C],viscosity at 100° C. [4],KV in cst at 40° C. [1] [cst],viscosity index ([2]; P-56),pour point ([3]; P-10) [°C],"Density, d4^20 [5] [gm/ml]","Evaporation loss, % by mass [6] [% by mass]","Adherence to metal, change in diameter of the drop, percent [7] [%]","Acidity, Inorganic [8]","Acidity, Organic [8]",KV in cst at 0° C. [4] [cst],viscosity at 0° C. [4],KV in cst at −35° C. [4] [cst],Structure (SMILES)
91.3,138,> −24,12.83,–,–,–,–,–,–,–,–,–,–,–,"CCCCC(CC)COC(=O)CCCCC(=O)OCC(CC)(CC)COC(=O)CCCCC(=O)OCC(CC)CCCC (centres unmarked) [DEADEH, 2,2-diethyl 1,3-propane di adipic 2 ethyl 1 hexanoate]"
47.0,171,> −39,–,47.00,171,<−39,0.9627,0.42,13,Nil,0.0635 mg KoH/gm of oil,408.23,408.23,>5000,"CCCCC(CC)COC(=O)CCCCCCCC(=O)OCC(CC)(CC)COC(=O)CCCCCCCC(=O)OCC(CC)CCCC (centres unmarked) [DEAZEH, 2,2-diethyl 1,3-propane diazelaic 2 ethyl 1 hexanoate]"
36.8,165,> −39,7.24,–,–,–,–,–,–,–,–,–,–,–,"CCCCC(CC)COC(=O)CCCCCCCCC(=O)OCC(CC)(CC)COC(=O)CCCCCCCCC(=O)OCC(CC)CCCC (centres unmarked) [DESEH, 2,2-diethyl 1,3-propane disebacic 2 ethyl 1 hexanoate]"
31.00,161,> −39,–,31.00,161,<−39,0.9915,0.48,12,Nil,0.0817 mg KoH/gm of oil,323.98,323.98,>4000,"CCCCC(CC)COC(=O)CCCCC(=O)OCC(C)(C)COC(=O)CCCCC(=O)OCC(CC)CCCC (centres unmarked) [DMADEH, 2,2-dimethyl 1,3-propane di adipic 2 ethyl 1 hexanoate]"
25.44,169,> −27,5.60,–,–,–,–,–,–,–,–,–,–,–,"CCCCC(CC)COC(=O)CCCCCCCC(=O)OCC(C)(C)COC(=O)CCCCCCCC(=O)OCC(CC)CCCC (centres unmarked) [DMAZEH, 2,2-dimethyl 1,3-propane diazelaic 2 ethyl 1 hexanoate]"
90.33,172,> −24,14.8,–,–,–,–,–,–,–,–,–,–,–,"CCCCC(CC)COC(=O)CCCCCCCCC(=O)OCC(C)(C)COC(=O)CCCCCCCCC(=O)OCC(CC)CCCC (centres unmarked) [DMSEH, 2,2-dimethyl 1,3-propane disebacid 2 ethyl 1 hexanoate]"

Structure (SMILES),viscosity at 40° C. [1],viscosity index [2],pour point [3] [°C],viscosity at 100° C. [4],KV in cst at 40° C. [1] [cst],viscosity index ([2]; P-56),pour point ([3]; P-10) [°C],"Density, d4^20 [5] [gm/ml]","Evaporation loss, % by mass [6] [% by mass]","Adherence to metal, change in diameter of the drop, percent [7] [%]","Acidity, Inorganic [8]","Acidity, Organic [8]",KV in cst at 0° C. [4] [cst],viscosity at 0° C. [4],KV in cst at −35° C. [4] [cst]
"CCCCC(CC)COC(=O)CCCCC(=O)OCC(CC)(COC(=O)CCCCC(=O)OCC(CC)CCCC)COC(=O)CCCCC(=O)OCC(CC)CCCC (centres unmarked) [THADEH, 1,1,1-trishydroxymethyl propane triadipic 2 ethyl 1 hexanoate]",26.51,196,> −15,10.17,–,–,–,–,–,–,–,–,–,–,–
"CCCCC(CC)COC(=O)CCCCCCCC(=O)OCC(CC)(COC(=O)CCCCCCCC(=O)OCC(CC)CCCC)COC(=O)CCCCCCCC(=O)OCC(CC)CCCC (centres unmarked) [THAZEH, 1,1,1-trishydroxymethyl propane triazilaic 2 ethyl 1 hexanoate]",46.07,165,> −27,8.53,–,–,–,–,–,–,–,–,–,–,–
"CCCCC(CC)COC(=O)CCCCCCCCC(=O)OCC(CC)(COC(=O)CCCCCCCCC(=O)OCC(CC)CCCC)COC(=O)CCCCCCCCC(=O)OCC(CC)CCCC (centres unmarked) [THSEH, 1,1,1-trishydroxymethyl propane trisebacic 2 ethyl 1 hexanoate]",111,196,> −24,16.87,–,–,–,–,–,–,–,–,–,–,–
